Measured values from US9187726B2, “Culturing a microorganism in a medium with an elevated level of a carboxylate counterion source” (ExxonMobil Research and Engineering Company, priority 2010, dated 2015).

How the values were obtained:
[1] = tested on: SGI-004 Synechococcus strain; assay: Tolerance to free fatty acids in media with increased calcium and magnesium; type: cell-based; settings: for effect on free fatty acid tolerance / viability: added to 2X and 4X of standard BG-11
Procedure: (§1) The Synechocystis sp. PCC 6803 strain and the SGI-004 Synechococcus strain were both tested to see if calcium and/or magnesium could alleviate the toxic effects of free fatty acid in the media. BG-11 media was used to culture the cells in multiwall plates. Calcium (CaCl2) and magnesium (MgCl2) were added alone and in combination to achieve a concentration two-fold (2×) and four-fold (4×) that of standard BG-11 media. […] PCC 6803. (Table 3). […] At a concentration double that of the BG-11 recipe (approximately 0.5 mM), calcium added a tolerance of up to about 100 mg/L more of free fatty acid for both of the strains.

[2] = tested on: Synechocystis sp. PCC 6803; assay: as above; type: cell-based; settings: for effect on free fatty acid tolerance: added to 2X and 4X of standard BG-11
Procedure: as §1

PH-SGI-E-0159 = assay: Long-term effect of calcium addition on fatty acid-producing strain, one copy Cc1FatB1; type: cell-based, Synechocystis sp. PCC 6803; settings: with or without extra calcium addition
Source text: (§2) FIG. 2 provides data on the growth of genetically modified cyanobacterial strains producing free fatty acids in calcium-supplemented media. FIG. 2a is a graph showing the post-IPTG induction growth of cultures (as measure by OD at 730 nm) of Synechocystis PCC 6803 transformed with one (PH-SGI-E-0159-1; “159”) or three (PH-SGI-E-0166-1; “166”) copies of the Cc1FatB1 Cuphea carthagenensis acyl-ACP thioesterase (diamonds, strain 159 in standard BG-11 media; squares, strain 159 in standard BG-11 media supplemented to 10-fold the amount of calcium of BG-11 (˜2.5 mM); triangles, cyanobacterial strain 166 in standard BG-11 media; circles, strain 166 in standard BG-11 media supplemented to 10-fold the amount of calcium of BG-11 (˜2.5 mM)). FIG. 2b is a graph showing the post-IPTG induction free fatty acid production in mg/L of cultures of Synechocystis strains transformed with one (PH-SGI-E-0159-1; “159”) or three (PH-SGI-E-0166-1; “166”) copies of the Cc1FatB1 Cuphea carthagenensis acyl-ACP thioesterase (diamonds, strain 159 in standard BG-11 media; squares, strain 159 in standard BG-11 media supplemented to 10-fold the amount of calcium of BG-11 (˜2.5 mM); triangles, cyanobacterial strain 166 in standard BG-11 media; circles, strain 166 in standard BG-11 media supplemented to 10-fold the amount of calcium of BG-11 (˜2.5 mM)). […]

PH-SGI-E-0166 = assay: Long-term effect of calcium addition on fatty acid-producing strain, three copies Cc1FatB1; type: cell-based, Synechocystis sp. PCC 6803; settings: ~10× calcium concentration; culture without extra calcium completely bleached after ~12 days of IPTG induction
Source text: as §2

[3] = tested on: Synechocystis sp. PCC 6803; assay: Growth in calcium-enhanced media up to about one hundred times BG-11 calcium; type: cell-based; settings: calcium up to about one hundred times standard BG-11 (up to ~25 mM)
Procedure: For large-scale production of fatty acids, calcium (and/or magnesium) supplementation would allow for fatty acids to accumulate during a production phase to be harvested one or more times in a non-continuous mode. Calcium concentrations up to about one hundred times the concentration of calcium in standard BG-11 medium (that is, up to ˜25 mM) have been tested on Synechocystis sp.

[4] = calcium at double the BG-11 recipe (approximately 0.5 mM)

| SMILES | effect on free fatty acid tolerance / viability [1] | effect on free fatty acid tolerance [2] | time cultures continued to grow and stayed green (PH-SGI-E-0159) | culture survival (PH-SGI-E-0166) | growth defects in calcium-enhanced media [3] | added tolerance, more free fatty acid tolerated [1, 4] | added tolerance, more free fatty acid tolerated [2, 4] |
| --- | --- | --- | --- | --- | --- | --- | --- |
| [Cl-].[Cl-].[Mg+2] [magnesium, MgCl2] | no discernible protective effect | increased free fatty tolerance | – | – | – | – | – |
| [Ca+2].[Cl-].[Cl-] [calcium, calcium chloride] | increased free fatty acid tolerance | increased free fatty tolerance | at least 31 days | survived | no growth defects | up to 100 mg/L | up to 100 mg/L |
